Assay: Human HepG2 cell viability assay in 384 well format
Type: toxicity, cell-based
Parameters: dose 125 nL, time 70.5 hour; cytotoxicity at 70.5 h: concentration not given beside the values
Conditions: HepG2 cells, read-out: Inhibition

SMILES | cytotoxicity at 70.5 h [%]
Cc1cc(-c2nc(C3(NC(=O)OC(C)(C)C)CCC3)no2)on1 | -5.47
Cc1nncn1CCNC(=O)C(C)(C)c1cccc(Cl)c1 | -8.68
CCc1nc2n(n1)CCCC2NC(=O)Nc1ccc(SC)c(F)c1 (stereo not given) | -6.66
CCN(C)CC1CCN(C(=O)Nc2ccc(-c3cc[nH]n3)cc2)C1 (stereo not given) | 11.5
Fc1cccc(CCN(c2ccc3nnnn3n2)C2CC2)c1 | -17.4
CC(C)COCC(NC(=O)Cc1ccn[nH]1)c1ccco1 (stereo not given) | -6.61
COc1cc2ccn(CCS(C)(=O)=O)c(=O)c2cc1F | -2.4
Cc1ncsc1CN1C[C@@H]2CN(S(C)(=O)=O)CCO[C@@H]2C1 | -7.53
O=C(C1CCOC1)N1CCC2(CC1)Cc1ccccc1CNC2=O (stereo not given) | -9.03
O=C1NCCO[C@H]2CN(C(=O)Cc3cccs3)CC[C@@H]12 | -7.13
Cn1cc(-c2ncc3c(c2C(=O)O)CCN(CC2CCOC2)C3)cn1 (stereo not given) | -3.12
Cc1ccc(NC(=O)N2CCC3(CCC(C(=O)N(C)C)O3)CC2)cc1 (stereo not given) | -4.12
Cc1nc(-c2nc(C(=O)N(C)C)c3ccccn23)cn1C(C)C | -8.88
Cc1nnc([C@@]23CCO[C@@H]2CCN(Cc2nccs2)C3)o1 | -9.1
Cc1nc(-c2nc(C(=O)NC3CC3)c3ccccn23)cn1C(C)C | -2.95
CN(C)C(=O)C1CCC2(CCN(C(=O)Nc3cccc(F)c3)CC2)O1 (stereo not given) | -5.9
O=C(c1cccs1)N1CCC2(CC1)CCN(S(=O)(=O)C1CC1)CC2 | -11.7
CS(=O)(=O)N1CCC2(CCN(C(=O)c3cccs3)CC2)CC1 | -8.9
CN(C)C(=O)C1CCC2(CCN(C(=O)Nc3ccccc3)CC2)O1 (stereo not given) | -8
Cc1cccc(NC(=O)N2CCC3(CCC(C(=O)N(C)C)O3)CC2)c1 (stereo not given) | -11.4
COC1COC2(CCN(S(=O)(=O)c3ccc(F)cc3)CC2)C1 (stereo not given) | 17.1
CN1CCC(CO[C@H]2CN(C(=O)c3cccn3C)[C@@H]3COC[C@H]23)CC1 | -11.6
Cn1ccnc1C(=O)NC[C@H]1OC[C@@H]2CCN(S(C)(=O)=O)C[C@@H]21 | 21.4
CC(C)N1C(=O)C[C@H]2[C@@H]1CCN2C(=O)c1ccco1 | 24.5
Cn1cnc2c(-c3cccnc3)nc(C3CCNCC3)cc21 | 15.6
Cc1ccc(CN2CCCC3(CCCN3S(C)(=O)=O)C2)s1 (stereo not given) | -8
Cc1cnc(N2CCc3cc(C(=O)O)c(N(C)C)nc3CC2)nc1 | -7.94
Cc1noc([C@@]23CCO[C@@H]2CCN(Cc2scnc2C)C3)n1 | -13.1

SMILES | cytotoxicity at 70.5 h [%]
Cc1ccsc1C(=O)N1CCC2(CC1)C(=O)N(C)CCN2CC1CC1 | -12.8
CNC(=O)c1cc2c(nc1N(C)C)CCN(c1ncc(F)cn1)CC2 | -13.5
COc1ccc(S(=O)(=O)N2CCN(C)c3ncccc3C2)cc1 | -5.97
COCCN1CCC12CCN(C(=O)c1ccc(C)nc1)C2 (stereo not given) | -16.4
CCOCc1nnc2n1CCN(Cc1c(C)noc1C)CC2 | 16.5
Cc1cnc(N2CC3(CCN(S(=O)(=O)C4CC4)C3)C2)nc1 | -11.5
Fc1cccc(-c2nnn3c2COCC(CNCc2nccs2)C3)c1 (stereo not given) | -11.8
Cc1nc(CO[C@H]2CN(C(=O)c3cccn3C)[C@@H]3COC[C@H]23)cs1 | -11.5
CCN(C(=O)c1ccc2nnc(C3CCN(CCOC)C3)n2c1)C(C)C (stereo not given) | -13.6
Cn1ccc(C(=O)N2C[C@@H]3CCN(c4cccnc4)C[C@@H]3C2)n1 | -4.89
O=C([C@H]1COC[C@H]2CN(C3CCOCC3)C[C@H]21)N1CCC(F)CC1 | -8.13
c1csc(CNCC2COCc3c(-c4ccoc4)nnn3C2)n1 (stereo not given) | -8.83
O=C([C@@H]1CC[C@@H]2[C@@H](CCN2CCOCc2ccccc2)O1)N1CCCC1 | 13
COC[C@@]12CCO[C@@H]1CCN(Cc1sccc1C)C2 | -10.6
O=C(c1cnccn1)N1C[C@@H]2CCN(c3cnccn3)C[C@@H]2C1 | -7.66
CCOCCN1C[C@H](C(=O)Nc2cccnc2)[C@@H]2CCO[C@@H]2C1 | -4.15
Cc1cccc(CN2CC[C@@H]3[C@@H]2CCN3Cc2cccs2)n1 | -5.52
Cc1ccc(C(=O)N2C[C@H](N3CCOCC3)[C@@H]3OCCC[C@@H]32)cn1 | -9.11
Cc1cccc(CN2CC[C@@H]3[C@@H]2CCN3C(=O)Cc2cccs2)n1 | -11.7
Cc1ccc(CN2CCn3c(COc4cccnc4)cnc3C2C)o1 (stereo not given) | -7.88
Cc1ccsc1CN1CCn2c(COc3cccnc3)cnc2C1C (stereo not given) | -9.93
CC1c2ncc(COc3cccnc3)n2CCN1Cc1cnn(C)c1 (stereo not given) | -9.85
O=C(NCCc1cccs1)[C@]12COC[C@H]1CN(Cc1ccncc1)C2 | -9.54
c1ccc(CN2CCC3(CC2)CC(Oc2cccnc2)C3)nc1 | -12.3
COCCN1C[C@H]2CCC[C@@H](CNc3ncccn3)[C@H]2C1 | -10.7
c1ccc(CN2Cc3[nH]nc(COc4cccnc4)c3C2)nc1 | -7.63
Cc1ccc(CN2CC[C@H]3CO[C@H](CN4CCN(C)CC4)[C@H]3C2)o1 | -7.33

Reference: ChEMBL document CHEMBL3507680, “University of Dundee, Gates Library screen for HepG2 cell viability”
